# Assay results reported in patent US20250255834A1, “ANXIOLYTIC COMPOSITION, FORMULATION AND METHOD OF USE” (priority 2012, published 2025).
# System: anxiety
# Test: Intranasal ketamine spray given to individual adult subjects for anxiety before a procedure or flight (case reports)
compound,measurement,setting,value
CNC1(c2ccccc2Cl)CCCCC1=O (stereo not drawn) [ketamine],duration of relief from anxiety and calming effect,"Example I: healthy person, intranasal, about 0.2-0.3 mg/kg",15 to 30 min
same,development of anxiety during the dental procedure,"Example II: person with severe dental phobia, dental extraction under local anesthetic, intranasal unit dose before travel, additional dosage in the waiting room",without the development of anxiety
same,duration of relief from anxiety and calming effect,"Example II: person with severe dental phobia, intranasal unit dose as in Example I",15 to 30 min
